Assay results: patent US6638973B2, “Taxane formulations” (FSU Research Foundation, Inc., priority 2000, dated 2003)

What follows are compounds tested on HCT116 cells (assay: In vitro cytotoxicity measured by the cell colony formation assay). Details: HCT116 cells, 72 h incubation with drug, colonies counted after 7 days; ID50 = drug concentration producing 50% inhibition of colony formation; read-out: IN VITRO ID 50 (nm) HCT116.
Format: cell-based
Procedure, shortened: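 Colony-forming survival was scored 7 days after a 72 h, 37 °C compound exposure followed by washout into fresh medium.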

CCOC(=O)N[C@@H](c1ccco1)[C@@H](O)C(=O)O[C@H]1C[C@@]2(O)[C@@H](OC(=O)c3ccccc3)C3[C@](C)(C(=O)[C@H](OC(=O)OCC)C(=C1C)C2(C)C)[C@@H](O)C[C@H]1OC[C@@]31OC(C)=O (stereo partly shown) [Compound 4020] and CCOC(=O)O[C@H]1C(=O)[C@@]2(C)C([C@H](OC(=O)c3ccccc3)[C@]3(O)C[C@H](OC(=O)[C@H](O)[C@@H](NC(=O)c4cccs4)c4ccco4)C(C)=C1C3(C)C)[C@]1(OC(C)=O)CO[C@@H]1C[C@@H]2O (stereo partly shown) [Compound 4088] cannot be ordered by IC50: under 1 nM for the first, under 10 nM for the second.

COC(=O)O[C@H]1C[C@H]2OC[C@@]2(OC(C)=O)C2[C@H](OC(=O)c3ccccc3)[C@]3(O)C[C@H](OC(=O)[C@H](O)[C@@H](NC(=O)OC(C)C)c4cccs4)C(C)=C([C@@H](O)C(=O)[C@@]21C)C3(C)C (stereo partly shown) [Compound 4144] and CCOC(=O)O[C@H]1C[C@H]2OC[C@@]2(OC(C)=O)C2[C@H](OC(=O)c3ccccc3)[C@]3(O)C[C@H](OC(=O)[C@H](O)[C@@H](NC(=O)OC(C)C)c4cccs4)C(C)=C([C@@H](O)C(=O)[C@@]21C)C3(C)C (stereo partly shown) [Compound 4151] cannot be ordered by IC50: under 1 nM for the first, under 1 nM for the second.

CCOC(=O)O[C@H]1C[C@H]2OC[C@@]2(OC(C)=O)C2[C@H](OC(=O)c3ccccc3)[C@]3(O)C[C@H](OC(=O)[C@H](O)[C@@H](NC(=O)C=C(C)C)c4cccs4)C(C)=C([C@@H](O)C(=O)[C@@]21C)C3(C)C (stereo partly shown) [Compound 4164] and COC(=O)O[C@H]1C[C@H]2OC[C@@]2(OC(C)=O)C2[C@H](OC(=O)c3ccccc3)[C@]3(O)C[C@H](OC(=O)[C@H](O)[C@@H](NC(=O)C=C(C)C)c4cccs4)C(C)=C([C@@H](O)C(=O)[C@@]21C)C3(C)C (stereo partly shown) [Compound 4244] cannot be ordered by IC50: under 1 nM for the first, under 1 nM for the second.

CCOC(=O)O[C@H]1C[C@H]2OC[C@@]2(OC(C)=O)C2[C@H](OC(=O)c3ccccc3)[C@]3(O)C[C@H](OC(=O)[C@H](O)[C@@H](NC(=O)c4ccccc4)c4cccs4)C(C)=C([C@@H](O)C(=O)[C@@]21C)C3(C)C (stereo partly shown) [Compound 4188] and CCOC(=O)O[C@H]1C[C@H]2OC[C@@]2(OC(C)=O)C2[C@H](OC(=O)c3ccccc3)[C@]3(O)C[C@H](OC(=O)[C@H](O)[C@@H](NC(=O)c4ccco4)c4cccs4)C(C)=C([C@@H](O)C(=O)[C@@]21C)C3(C)C (stereo partly shown) [Compound 4304] cannot be ordered by IC50: under 10 nM for the first, under 10 nM for the second.

COC(=O)O[C@H]1C[C@H]2OC[C@@]2(OC(C)=O)C2[C@H](OC(=O)c3ccccc3)[C@]3(O)C[C@H](OC(=O)[C@H](O)[C@@H](NC(=O)c4ccco4)c4cccs4)C(C)=C([C@@H](O)C(=O)[C@@]21C)C3(C)C (stereo partly shown) [Compound 4222] and COC(=O)O[C@H]1C[C@H]2OC[C@@]2(OC(C)=O)C2[C@H](OC(=O)c3ccccc3)[C@]3(O)C[C@H](OC(=O)[C@H](O)[C@@H](NC(=O)OCC(C)C)c4cccs4)C(C)=C([C@@H](O)C(=O)[C@@]21C)C3(C)C (stereo partly shown) [Compound 4355] cannot be ordered by IC50: under 1 nM for the first, under 1 nM for the second.

CCOC(=O)O[C@H]1C[C@H]2OC[C@@]2(OC(C)=O)C2[C@H](OC(=O)c3ccccc3)[C@]3(O)C[C@H](OC(=O)[C@H](O)[C@@H](NC(=O)OC(C)(C)C)c4cccs4)C(C)=C([C@@H](O)C(=O)[C@@]21C)C3(C)C (stereo partly shown) [Compound 4234] and CCOC(=O)O[C@H]1C[C@H]2OC[C@@]2(OC(C)=O)C2[C@H](OC(=O)c3ccccc3)[C@]3(O)C[C@H](OC(=O)[C@H](O)[C@@H](NC(=O)OCC(C)C)c4cccs4)C(C)=C([C@@H](O)C(=O)[C@@]21C)C3(C)C (stereo partly shown) [Compound 4363] cannot be ordered by IC50: under 1 nM for the first, under 10 nM for the second.

Compound CCOC(=O)O[C@H]1C(=O)[C@@]2(C)C([C@H](OC(=O)c3ccccc3)[C@]3(O)C[C@H](OC(=O)[C@H](O)[C@@H](NC(=O)C=C(C)C)c4cccs4)C(C)=C1C3(C)C)[C@]1(OC(C)=O)CO[C@@H]1C[C@@H]2O (stereo partly shown) [Compound 4374] has an IC50 of under 1 nM.

Same assay, conditions: HCT116 colony formation; 72 h drug incubation, colonies counted after 7 days; Example 5, C-7 ester/C-10 hydroxy taxanes; read-out: IN VITRO ID 50 (nm) HCT116

CCC(=O)O[C@H]1C[C@H]2OC[C@@]2(OC(C)=O)C2[C@H](OC(=O)c3ccccc3)[C@]3(O)C[C@H](OC(=O)[C@H](O)[C@@H](NC(=O)c4ccccc4)c4ccco4)C(C)=C([C@@H](O)C(=O)[C@@]21C)C3(C)C (stereo partly shown) [Compound 4017] and CCCC(=O)O[C@H]1C[C@H]2OC[C@@]2(OC(C)=O)C2[C@H](OC(=O)c3ccccc3)[C@]3(O)C[C@H](OC(=O)[C@H](O)[C@@H](NC(=O)c4ccccc4)c4cccs4)C(C)=C([C@@H](O)C(=O)[C@@]21C)C3(C)C (stereo partly shown) [Compound 4175] cannot be ordered by IC50: under 10 nM for the first, under 10 nM for the second.

CCOC(=O)N[C@@H](c1cccs1)[C@@H](O)C(=O)O[C@H]1C[C@@]2(O)[C@@H](OC(=O)c3ccccc3)C3[C@](C)(C(=O)[C@H](O)C(=C1C)C2(C)C)[C@@H](OC(=O)CC)C[C@H]1OC[C@@]31OC(C)=O (stereo partly shown) [Compound 4044] and CCCC(=O)O[C@H]1C[C@H]2OC[C@@]2(OC(C)=O)C2[C@H](OC(=O)c3ccccc3)[C@]3(O)C[C@H](OC(=O)[C@H](O)[C@@H](NC(=O)OCC(C)C)c4cccs4)C(C)=C([C@@H](O)C(=O)[C@@]21C)C3(C)C (stereo partly shown) [Compound 4290] cannot be ordered by IC50: under 1 nM for the first, under 10 nM for the second.

First: CCC(=O)O[C@H]1C[C@H]2OC[C@@]2(OC(C)=O)C2[C@H](OC(=O)c3ccccc3)[C@]3(O)C[C@H](OC(=O)[C@H](O)[C@@H](NC(=O)c4cccnc4)c4cccs4)C(C)=C([C@@H](O)C(=O)[C@@]21C)C3(C)C (stereo partly shown) [Compound 4106]
Second: CCCC(=O)O[C@H]1C[C@H]2OC[C@@]2(OC(C)=O)C2[C@H](OC(=O)c3ccccc3)[C@]3(O)C[C@H](OC(=O)[C@H](O)[C@@H](NC(=O)c4ccco4)c4cccs4)C(C)=C([C@@H](O)C(=O)[C@@]21C)C3(C)C (stereo partly shown) [Compound 4219]
The IC50 of the first is lower: under 10 nM for the first, 29 nM for the second. The first is the more potent here.

CCCC(=O)O[C@H]1C[C@H]2OC[C@@]2(OC(C)=O)C2[C@H](OC(=O)c3ccccc3)[C@]3(O)C[C@H](OC(=O)[C@H](O)[C@@H](NC(=O)OC(C)C)c4cccs4)C(C)=C([C@@H](O)C(=O)[C@@]21C)C3(C)C (stereo partly shown) [Compound 4135] and CCCC(=O)O[C@H]1C[C@H]2OC[C@@]2(OC(C)=O)C2[C@H](OC(=O)c3ccccc3)[C@]3(O)C[C@H](OC(=O)[C@H](O)[C@@H](NC(=O)OC(C)(C)C)c4cccs4)C(C)=C([C@@H](O)C(=O)[C@@]21C)C3(C)C (stereo partly shown) [Compound 4256] cannot be ordered by IC50: under 1 nM for the first, under 1 nM for the second.

CCCC(=O)O[C@H]1C[C@H]2OC[C@@]2(OC(C)=O)C2[C@H](OC(=O)c3ccccc3)[C@]3(O)C[C@H](OC(=O)[C@H](O)[C@@H](NC(=O)C=C(C)C)c4cccs4)C(C)=C([C@@H](O)C(=O)[C@@]21C)C3(C)C (stereo partly shown) [Compound 4283] and CCCC(=O)O[C@H]1C[C@H]2OC[C@@]2(OC(C)=O)C2[C@H](OC(=O)c3ccccc3)[C@]3(O)C[C@H](OC(=O)[C@H](O)[C@@H](NC(=O)c4cccs4)c4cccs4)C(C)=C([C@@H](O)C(=O)[C@@]21C)C3(C)C (stereo partly shown) [Compound 4388] cannot be ordered by IC50: under 1 nM for the first, under 1 nM for the second.

CCCC(=O)O[C@H]1C[C@H]2OC[C@@]2(OC(C)=O)C2[C@H](OC(=O)c3ccccc3)[C@]3(O)C[C@H](OC(=O)[C@H](O)[C@@H](NC(=O)C=C(C)C)c4cccs4)C(C)=C([C@@H](O)C(=O)[C@@]21C)C3(C)C (stereo partly shown) [Compound 4312] and CCCC(=O)O[C@H]1C[C@H]2OC[C@@]2(OC(C)=O)C2[C@H](OC(=O)c3ccccc3)[C@]3(O)C[C@H](OC(=O)[C@H](O)[C@@H](NC(=O)OC(C)(C)C)c4ccoc4)C(C)=C([C@@H](O)C(=O)[C@@]21C)C3(C)C (stereo partly shown) [Compound 4394] cannot be ordered by IC50: under 1 nM for the first, under 1 nM for the second.

Same assay, conditions: HCT116 colony formation; 72 h drug incubation, colonies counted after 7 days; Example 10, C-10 ester/C-7 hydroxy taxanes; read-out: IN VITRO ID 50 (nm) HCT116

CCOC(=O)N[C@@H](c1cccs1)[C@@H](O)C(=O)O[C@H]1C[C@@]2(O)[C@@H](OC(=O)c3ccccc3)C3[C@](C)(C(=O)[C@H](OC(=O)C4CC4)C(=C1C)C2(C)C)[C@@H](O)C[C@H]1OC[C@@]31OC(C)=O (stereo partly shown) [Compound 4051] and CC(=O)O[C@@]12CO[C@@H]1C[C@H](O)[C@@]1(C)C(=O)[C@H](OC(=O)C3CC3)C3=C(C)[C@@H](OC(=O)[C@H](O)[C@@H](NC(=O)C=C(C)C)c4cccs4)C[C@@](O)([C@@H](OC(=O)c4ccccc4)C12)C3(C)C (stereo partly shown) [Compound 4329] cannot be ordered by IC50: under 1 nM for the first, under 1 nM for the second.

CCCC(=O)N[C@@H](c1ccco1)[C@@H](O)C(=O)O[C@H]1C[C@@]2(O)[C@@H](OC(=O)c3ccccc3)C3[C@](C)(C(=O)[C@H](OC(=O)C4CC4)C(=C1C)C2(C)C)[C@@H](O)C[C@H]1OC[C@@]31OC(C)=O (stereo partly shown) [Compound 4062] and CC(=O)O[C@@]12CO[C@@H]1C[C@H](O)[C@@]1(C)C(=O)[C@H](OC(=O)C3CC3)C3=C(C)[C@@H](OC(=O)[C@H](O)[C@@H](NC(=O)c4cccnc4)c4cccs4)C[C@@](O)([C@@H](OC(=O)c4ccccc4)C12)C3(C)C (stereo partly shown) [Compound 4112] cannot be ordered by IC50: under 1 nM for the first, under 10 nM for the second.

CCC(=O)O[C@H]1C(=O)[C@@]2(C)C([C@H](OC(=O)c3ccccc3)[C@]3(O)C[C@H](OC(=O)[C@H](O)[C@@H](NC(=O)c4cccnc4)c4cccs4)C(C)=C1C3(C)C)[C@]1(OC(C)=O)CO[C@@H]1C[C@@H]2O (stereo partly shown) [Compound 4121] and CCCC(=O)O[C@H]1C(=O)[C@@]2(C)C([C@H](OC(=O)c3ccccc3)[C@]3(O)C[C@H](OC(=O)[C@H](O)[C@@H](NC(=O)c4cccnc4)c4cccs4)C(C)=C1C3(C)C)[C@]1(OC(C)=O)CO[C@@H]1C[C@@H]2O (stereo partly shown) [Compound 4190] cannot be ordered by IC50: under 10 nM for the first, under 10 nM for the second.

CCC(=O)O[C@H]1C(=O)[C@@]2(C)C([C@H](OC(=O)c3ccccc3)[C@]3(O)C[C@H](OC(=O)[C@H](O)[C@@H](NC(=O)c4ccncc4)c4cccs4)C(C)=C1C3(C)C)[C@]1(OC(C)=O)CO[C@@H]1C[C@@H]2O (stereo partly shown) [Compound 4207] and CCC(=O)O[C@H]1C(=O)[C@@]2(C)C([C@H](OC(=O)c3ccccc3)[C@]3(O)C[C@H](OC(=O)[C@H](O)[C@@H](NC(=O)C=C(C)C)c4cccs4)C(C)=C1C3(C)C)[C@]1(OC(C)=O)CO[C@@H]1C[C@@H]2O (stereo partly shown) [Compound 4335] cannot be ordered by IC50: under 10 nM for the first, under 1 nM for the second.

CCCC(=O)O[C@H]1C(=O)[C@@]2(C)C([C@H](OC(=O)c3ccccc3)[C@]3(O)C[C@H](OC(=O)[C@H](O)[C@@H](NC(=O)C=C(C)C)c4cccs4)C(C)=C1C3(C)C)[C@]1(OC(C)=O)CO[C@@H]1C[C@@H]2O (stereo partly shown) [Compound 4344] was tested, and the IC50 was under 1 nM.
